Measurements taken from the CheMixHub viscosity set.

Experiment: xn = mol fraction of the nth substance listed

CC(=O)c1ccc(C)cc1 + CNC(C)=O
308.15 K, 101 kPa
Details | viscosity [mPa·s]
x1 = 0.0617 | 3.091
x1 = 0.1321 | 2.867
x1 = 0.2004 | 2.666
x1 = 0.2836 | 2.469
x1 = 0.3629 | 2.286
x1 = 0.4632 | 2.08
x1 = 0.5582 | 1.927
x1 = 0.689 | 1.722
x1 = 0.8305 | 1.588

C[N+](=O)[O-] + CCO
viscosity [mPa·s]
Details | 293.15 K | 298.15 K | 303.15 K | 313.15 K
101 kPa, x1 = 0.1074 | – | 0.9963 | – | –
101 kPa, x1 = 0.2135 | – | 0.9148 | – | –
101 kPa, x1 = 0.3174 | – | 0.84 | – | –
101 kPa, x1 = 0.4199 | – | 0.777 | – | –
101 kPa, x1 = 0.5202 | – | 0.7236 | – | –
101 kPa, x1 = 0.6192 | – | 0.6847 | – | –
101 kPa, x1 = 0.7167 | – | 0.6557 | – | –
101 kPa, x1 = 0.8126 | – | 0.6418 | – | –
101 kPa, x1 = 0.9071 | – | 0.637 | – | –
101.33 kPa, x2 = 0.0501 | 0.625 | – | 0.553 | 0.501
101.33 kPa, x2 = 0.1001 | 0.609 | – | 0.538 | 0.486
101.33 kPa, x2 = 0.15 | 0.602 | – | 0.53 | 0.477
101.33 kPa, x2 = 0.2 | 0.601 | – | 0.527 | 0.472
101.33 kPa, x2 = 0.2501 | 0.604 | – | 0.527 | 0.471
101.33 kPa, x2 = 0.3001 | 0.612 | – | 0.531 | 0.472
101.33 kPa, x2 = 0.3502 | 0.622 | – | 0.538 | 0.476
101.33 kPa, x2 = 0.4008 | 0.636 | – | 0.547 | 0.482
101.33 kPa, x2 = 0.4501 | 0.653 | – | 0.561 | 0.491
101.33 kPa, x2 = 0.5001 | 0.672 | – | 0.577 | 0.502
101.33 kPa, x2 = 0.55 | 0.695 | – | 0.594 | 0.516
101.33 kPa, x2 = 0.6 | 0.72 | – | 0.612 | 0.531
101.33 kPa, x2 = 0.65 | 0.75 | – | 0.633 | 0.547
101.33 kPa, x2 = 0.7 | 0.785 | – | 0.665 | 0.569
101.33 kPa, x2 = 0.75 | 0.825 | – | 0.698 | 0.595
101.33 kPa, x2 = 0.8 | 0.872 | – | 0.732 | 0.625
101.33 kPa, x2 = 0.85 | 0.936 | – | 0.782 | 0.662
101.33 kPa, x2 = 0.9 | 1.006 | – | 0.835 | 0.705
101.33 kPa, x2 = 0.95 | 1.086 | – | 0.901 | 0.759

CCCCC(CC)COP(=O)(O)OCC(CC)CCCC (stereo not given) + CCCO
303.15 K, 101 kPa
Details | viscosity [mPa·s]
x1 = 0.0388 | 2.397
x1 = 0.0845 | 3.204
x1 = 0.1765 | 4.994
x1 = 0.2522 | 6.571
x1 = 0.3449 | 8.647
x1 = 0.4687 | 11.29
x1 = 0.6123 | 13.8
x1 = 0.7274 | 15.62
x1 = 0.8109 | 16.82
x1 = 0.9261 | 18.45

CCCCC(CC)COP(=O)(O)OCC(CC)CCCC (stereo not given) + CCC(=O)O
303.15 K, 101 kPa
Details | viscosity [mPa·s]
x1 = 0.0668 | 1.394
x1 = 0.1278 | 1.986
x1 = 0.2286 | 3.022
x1 = 0.3182 | 4.286
x1 = 0.4677 | 6.968
x1 = 0.5096 | 7.792
x1 = 0.5879 | 9.486
x1 = 0.6584 | 11.01
x1 = 0.7068 | 12.08
x1 = 0.7594 | 13.3
x1 = 0.814 | 14.5
x1 = 0.8783 | 16.08
x1 = 0.9378 | 17.59

CCCCOCCOCCOCCO + ClC(Cl)=C(Cl)Cl
298.15 K, 101.33 kPa
Details | viscosity [mPa·s]
x2 = 0.0067 | 0.864
x2 = 0.0173 | 0.895
x2 = 0.0345 | 0.95
x2 = 0.0476 | 0.995
x2 = 0.06 | 1.04
x2 = 0.0815 | 1.124
x2 = 0.1063 | 1.227
x2 = 0.1471 | 1.408
x2 = 0.184 | 1.601
x2 = 0.2264 | 1.828
x2 = 0.2617 | 2.046
x2 = 0.3067 | 2.351
x2 = 0.348 | 2.66
x2 = 0.377 | 2.889
x2 = 0.415 | 3.192
x2 = 0.4588 | 3.55
x2 = 0.491 | 3.816
x2 = 0.5348 | 4.198
x2 = 0.576 | 4.576
x2 = 0.6201 | 4.978
x2 = 0.6577 | 5.357
x2 = 0.7089 | 5.881
x2 = 0.7558 | 6.354
x2 = 0.8037 | 6.872
x2 = 0.8566 | 7.45
x2 = 0.9013 | 7.964
x2 = 0.9283 | 8.26
x2 = 0.9521 | 8.528
x2 = 0.9738 | 8.793

Cc1cccc(O)c1 + Cc1ccccc1N
298.15 K, 101 kPa
Details | viscosity [mPa·s]
x1 = 0.33 | 8.06
x1 = 0.496 | 11.21
x1 = 0.662 | 13.84
x1 = 0.751 | 13.76

CCCCOC(=O)C(C)O (stereo not given) + CCCO
101 kPa, x1 = 0.8998
Details | viscosity [mPa·s]
303.15 K | 2.685
313.15 K | 2.075

C[N+](=O)[O-] + CS(C)=O
viscosity [mPa·s], 101.3 kPa
Details | x2 = 0.1135 | x2 = 0.117 | x2 = 0.2337 | x2 = 0.2468 | x2 = 0.432 | x2 = 0.4324 | x2 = 0.5837 | x2 = 0.5943 | x2 = 0.812 | x2 = 0.8156
298 K | 0.726 | – | 0.823 | – | 1.014 | – | – | 1.229 | 1.613 | –
318 K | – | 0.5753 | – | 0.6471 | – | 0.7717 | 0.8878 | – | – | 1.12

N[C@@H](Cc1c[nH]cn1)C(=O)[O-].[K+] + O
viscosity [mPa·s], 101.3 kPa
Details | 293.15 K | 298.15 K | 303.15 K | 308.15 K | 313.15 K | 318.15 K | 323.15 K
x1 = 0.00475 | 1.09 | 0.9617 | 0.8629 | 0.7803 | 0.7087 | 0.648 | 0.5955
x1 = 0.00983 | 1.242 | 1.093 | 0.9797 | 0.8847 | 0.8025 | 0.7344 | 0.6734
x1 = 0.0145 | 1.421 | 1.252 | 1.119 | 1.007 | 0.9131 | 0.8323 | 0.7621
x1 = 0.02037 | 1.662 | 1.457 | 1.299 | 1.167 | 1.053 | 0.9568 | 0.8736
x1 = 0.03224 | 2.28 | 2.002 | 1.768 | 1.578 | 1.417 | 1.279 | 1.164
x1 = 0.04399 | 3.048 | 2.632 | 2.315 | 2.049 | 1.828 | 1.641 | 1.484

C[Si]1(C)O[Si](C)(C)O[Si](C)(C)O[Si](C)(C)O[Si](C)(C)O[Si](C)(C)O1 + C[Si](C)(C)O[Si](C)(C)O[Si](C)(C)O[Si](C)(C)C
Details | viscosity [mPa·s]
298.15 K, 101 kPa, x2 = 0.457 | 3.47

C[N+](=O)[O-] + CC(C)CO
298.15 K, 101 kPa
Details | viscosity [mPa·s]
x1 = 0.1592 | 2.304
x1 = 0.2992 | 1.779
x1 = 0.4225 | 1.382
x1 = 0.5327 | 1.108
x1 = 0.6306 | 0.9667
x1 = 0.7193 | 0.822
x1 = 0.7993 | 0.7537
x1 = 0.8724 | 0.7066
x1 = 0.9387 | 0.6682

Brc1ccc(Br)cc1 + CC(C)O
viscosity [mPa·s], 101 kPa
Details | 298.15 K | 303.15 K | 308.15 K | 313.15 K | 318.15 K
x1 = 0.02851 | 1.945 | 1.682 | 1.476 | 1.307 | 1.16
x1 = 0.04384 | – | 1.663 | 1.47 | 1.291 | 1.142

CCCCC(CC)COP(=O)(O)OCC(CC)CCCC (stereo not given) + O=[N+]([O-])c1ccccc1
Details | viscosity [mPa·s]
303.15 K, 100 kPa, x1 = 0.9387 | 17.75
